Format in all cases: functional
Assay [1] relates to Felis catus. In words: Dose required to induce 50% inhibition of isoprenaline-induced tachycardia in the ganglion blocked anesthetized cat. The following applies: read-out: ID50 (the source's name).
For assay [2], the system named is Rattus norvegicus. In words: Dose required to produce a 50% increase in blood flow to the autoperfused hindquarters of the anesthetized normotensive rat.
The subject of assay [3] is Rattus norvegicus. Nature of the assay: Dose required to produce a fall in blood pressure of 40 mmHg in the anesthetized normotensive rat.

Bounds are passed on as bounds.

As for `C[C@@H]1CC(=O)NN=C1c1ccc(NC(=O)CCNC[C@H](O)COc2ccc(CCOCC3CC3)cc2)cc1`, the values for the ED50 in assay [1] and in assay [2] were 1.7 µmol/kg and 1 µmol/kg, respectively. Besides, in assay [3], the ED40 is 2.4 µM/kg.

For the molecule `C[C@@H]1CC(=O)NN=C1c1ccc(NC(=O)CCNC[C@@H](O)COc2ccc(CCOCC3CC3)cc2)cc1`, the results for the ED50 in assay [1] and in assay [2] were 20.2 µmol/kg and 0.9 µmol/kg, respectively. Moreover, the ED40 in assay [3] turned out to be 4.9 µM/kg.

Consider `C[C@H]1CC(=O)NN=C1c1ccc(NC(=O)CCNC[C@H](O)COc2ccc(CCOCC3CC3)cc2)cc1`, for which the ED50 in assay [1] was 1.6 µmol/kg; in assay [2], more than 40 µmol/kg. The molecule also yielded an ED40 in assay [3] of more than 40 µM/kg.

Turning to `C[C@H]1CC(=O)NN=C1c1ccc(NC(=O)CCNC[C@@H](O)COc2ccc(CCOCC3CC3)cc2)cc1`, the ED50 in assay [1] is 8.6 µmol/kg; in assay [2] it was more than 40 µmol/kg. In assay [3], this molecule displayed an ED40 of 20 µM/kg.

Take `CC1CC(=O)NN=C1c1ccc(NC(=O)CCNCC(O)COc2ccc(CCOCC3CC3)cc2)cc1` (stereo not given): the ED50 was found to be 1.7 µmol/kg in assay [1] and 1.6 µmol/kg in assay [2]. The molecule further gave an ED40 in assay [3] of 2.4 µM/kg.

The record behind these values is ChEMBL document CHEMBL1124030, “Synthesis and biological activity of the four stereoisomers of 6-[4-[3-[[2-hydroxy-3-[4-[2- (cyclopropylmethoxy)ethyl]phenoxy]propyl]amino]-propionamido] phenyl]-5-methyl-4,5-dihydro-3(2H)-pyridazinone, a combined vasodilator and beta-adrenoceptor antagonist” (1988).
